Read-outs that look alike come from different tables or passages of the source.
Key:
[1] = target: T1, Human soluble guanylate cyclase enzyme (hsGC) (Homo sapiens (Human), UniProt Q02108+Q02153); assay: Purified human sGC enzyme synergy assay in the presence of 1 μM sodium nitroprusside (SNP); type: biochemical; conditions: 30 μM compound, with the addition of SNP
How it was run: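 Fold-change in cGMP-forming specific activity (nmol/mg/min) versus DMSO, with 1 μM SNP present throughout. Reactions held 30 min at 37 °C with 10 or 30 μM compound, 5 ng human sGC, 300 μM GTP, 1 mM IBMX and 2 mM MgCl2 at pH 8.0, then stopped with cold methanol.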

[2] = target: T2, soluble guanylate cyclase (sGC) (Homo sapiens (Human), UniProt Q02108+Q02153); assay: sGC-HEK-cGMP assay run in the absence of SNP (HEK WC assay); type: cell-based; conditions: compound at 30 μM, absence of SNP
T2 sequence (Q02153 whole entry): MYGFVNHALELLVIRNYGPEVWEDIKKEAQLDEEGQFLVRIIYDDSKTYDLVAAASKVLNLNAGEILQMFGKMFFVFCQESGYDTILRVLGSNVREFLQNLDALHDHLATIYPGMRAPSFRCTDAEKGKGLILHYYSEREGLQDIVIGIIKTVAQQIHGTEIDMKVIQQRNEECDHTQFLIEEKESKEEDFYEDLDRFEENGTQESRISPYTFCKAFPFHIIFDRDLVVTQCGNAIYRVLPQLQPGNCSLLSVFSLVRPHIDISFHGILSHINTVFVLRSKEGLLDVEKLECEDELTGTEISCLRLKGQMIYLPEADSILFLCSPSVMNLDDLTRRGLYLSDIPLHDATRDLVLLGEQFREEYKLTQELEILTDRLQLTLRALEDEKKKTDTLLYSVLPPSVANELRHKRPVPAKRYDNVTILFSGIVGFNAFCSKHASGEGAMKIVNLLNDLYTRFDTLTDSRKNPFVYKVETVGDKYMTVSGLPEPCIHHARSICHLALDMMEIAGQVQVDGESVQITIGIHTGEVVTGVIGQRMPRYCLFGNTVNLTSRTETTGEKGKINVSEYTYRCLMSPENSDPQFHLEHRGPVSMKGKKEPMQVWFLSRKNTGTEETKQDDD
T2 sequence (Q02108 whole entry): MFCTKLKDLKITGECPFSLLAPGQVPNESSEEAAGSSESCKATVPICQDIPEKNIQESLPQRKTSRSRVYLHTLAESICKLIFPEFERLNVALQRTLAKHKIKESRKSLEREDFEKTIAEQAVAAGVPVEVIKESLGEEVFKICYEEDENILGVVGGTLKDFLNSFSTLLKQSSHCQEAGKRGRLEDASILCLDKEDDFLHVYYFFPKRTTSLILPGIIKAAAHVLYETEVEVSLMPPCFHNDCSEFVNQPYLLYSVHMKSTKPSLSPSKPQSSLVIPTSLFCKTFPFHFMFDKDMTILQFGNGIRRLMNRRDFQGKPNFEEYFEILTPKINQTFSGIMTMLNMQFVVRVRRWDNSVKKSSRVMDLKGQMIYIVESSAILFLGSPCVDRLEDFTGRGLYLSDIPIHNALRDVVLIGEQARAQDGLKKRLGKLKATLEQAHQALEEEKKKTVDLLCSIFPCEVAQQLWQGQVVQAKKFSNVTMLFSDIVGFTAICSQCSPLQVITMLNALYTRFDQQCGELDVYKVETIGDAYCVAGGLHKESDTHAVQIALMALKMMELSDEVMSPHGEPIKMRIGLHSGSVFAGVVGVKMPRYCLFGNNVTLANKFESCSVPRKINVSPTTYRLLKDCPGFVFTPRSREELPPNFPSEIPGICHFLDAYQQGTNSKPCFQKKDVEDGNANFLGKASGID
How it was run: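 Intracellular cGMP was measured by LC/MS, using a standard curve, in HEK293 cells treated with compound for 10 min at 37° C after a 15 min 0.5 mM IBMX pretreatment, with no SNP present. Lysis and quench used 0.1 M HCl. EC50 values came from concentration-response fits.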

[3] = target: T2, soluble guanylate cyclase (sGC); assay: sGC-HEK-cGMP assay run with SNP incubation (HEK WC assay); type: cell-based; conditions: for HEK WC Assay (fold increase at 30 μM in the presence of 10 μM SNP): compound at 30 μM; for Emax at 10 µM: read-out: HEK WC Assay (% Emax at 10 μM/with 10 uM SNP); for Emax at 30 µM: read-out: HEK WC Assay (% Emax at 30 μM/with 10 uM SNP); for EC50: in the presence of 10 uM SNP
How it was run: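 EC50 values derive from concentration-response curves of intracellular cGMP in HEK293 cells, which express sGC endogenously. Compound and sodium nitroprusside were co-incubated 10 min at 37 °C after a 15-min 0.5 mM IBMX step, with 0.1 M HCl lysis and 1% DMSO vehicle.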

[4] = target: T1, Human soluble guanylate cyclase enzyme (hsGC); assay: Purified human sGC enzyme activity assay; type: biochemical; conditions: 30 μM compound, without the addition of SNP
How it was run: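 Values are fold-change of sGC specific activity, nmoles cGMP per mg enzyme per min, relative to DMSO controls. Reactions: 5 ng human enzyme, 300 μM GTP, 1 mM IBMX, 2 mM MgCl2/DTT, 0.1 M Tris pH 8.0, compound 10 or 30 μM final, 37° C for 30 minutes, methanol quench. cGMP read against a 0.078-10 μM final standard curve.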

Thoracic aortic rings = assay: Alternative thoracic aortic rings assay (Example 19b; resting tension as 100% inhibition); set-up: species or system rat; conditions: for inhibition at 1 µM: read-out: Percent Relaxation at 1 μM; for inhibition at 3 µM: read-out: Percent Relaxation at 3 μM; for inhibition at 10 µM: read-out: Percent Relaxation at 10 μM; for EC50: read-out: Aortic Ring EC50
How it was run: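 EC50 values come from cumulative concentration-response relaxation of phenylephrine (100 ng/mL)-contracted thoracic aortic rings from 275-299 g male Sprague-Dawley rats. Rings were equilibrated at 1.0 g tension in oxygenated Krebs-Henseleit at 37 °C, with compounds given in DMSO and tension measured isometrically.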

[5] = read-out: HEK WC Assay (% Emax at 10 μM with 10 uM SNP)
[6] = read-out: HEK WC Assay (% Emax at 30 μM with 10 uM SNP)
[7] = read-out: HEK WC Assay in the presence of 10 uM SNP EC50
[8] = Rattus norvegicus, 10 μM, Table 10A

T1 sequence (Q02153 whole entry): as the sequence (Q02153 whole entry) above
T1 sequence (Q02108 whole entry): as the sequence (Q02108 whole entry) above

Row | SMILES | sGC Enzyme (fold increase at 30 μM with SNP) [1] | HEK WC Assay (fold increase at 30 μM in the absence of SNP) [2] | HEK WC Assay (fold increase at 30 μM in the presence of 10 μM SNP) [3] | Emax [3, 5] [%] | Emax at 10 µM [3] [%] | Emax [3, 6] [%] | Emax at 30 µM [3] [%] | EC50 [3, 7] [µM] | sGC Enzyme (fold increase at 30 μM) [4] | Percent Relaxation at 1 μM (Thoracic aortic rings; Table 10B) | Percent Relaxation at 3 μM (Thoracic aortic rings; Table 10B) | Percent Relaxation at 10 μM (Thoracic aortic rings; 10 μM, Table 10B) | inhibition at 1 µM (Thoracic aortic rings; Rattus norvegicus, Table 10A) [%] | inhibition at 3 µM (Thoracic aortic rings; Rattus norvegicus, Table 10A) [%] | inhibition at 10 µM (Thoracic aortic rings; [8]) [%] | EC50 (Thoracic aortic rings; Rattus norvegicus, Table 10A) [µM] | EC50 (Thoracic aortic rings; Table 10B) [µM] | EC50 [3] [µM] | Emax ([3]; read-out: HEK WC Assay (% Emax at 1 μM with 10 uM SNP)) [%]
1 | Nc1nc(-c2cc(-c3ccon3)n(Cc3ccccc3F)n2)ncc1C1(O)CC1 [Compound I-119, I-(4-amino-2-(1-(2-fluorobenzyl)-5-(isoxazol-3-yl)-1H-pyrazol-3-yl)pyrimidin-5-yl)cyclopropanol] | D (D = 10 to <30 fold increase) | C (C = 2 to <5 fold increase) | E (E = 10 to <20 fold increase) | 100 to 120 | > 120 | 100 to 120 | > 120 | < 20 | B (B = 2 to <5 fold increase) | C (C = 20 to <40%) | E (E = 60 or <80%) | G (G = 100 to <120%) | 20 to 40 | 60 to 80 | 100 to 120 | < 2 | < 2 | – | –
2 | CC(C)(C)NC(=O)c1cnc(-c2cc(-c3ccon3)n(Cc3ccccc3F)n2)nc1N [Compound I-136] | D (D = 10 to <30 fold increase) | D (D = 5 to <10 fold increase) | E (E = 10 to <20 fold increase) | 60 to 80 | 20 to 40 | 20 to 40 | 20 to 40 | – | C (C = 5 to <10 fold increase) | – | – | – | – | – | – | – | – | < 20 | 40 to 60
3 | Nc1nc(-c2cc(-c3ccon3)n(Cc3ccccc3F)n2)ncc1NC(=O)OCc1ccccc1 [Compound I-125] | D (D = 10 to <30 fold increase) | D (D = 5 to <10 fold increase) | F (F = 20 to <30 fold increase) | 80 to 100 | 80 to 100 | 80 to 100 | 80 to 100 | < 20 | C (C = 5 to <10 fold increase) | – | – | – | – | – | – | – | – | – | –
4 | CC(C)(C)CC(=O)Nc1cnc(-c2cc(-c3ccon3)n(Cc3ccccc3F)n2)nc1N [Compound I-124] | D (D = 10 to <30 fold increase) | E (E = 10 to <20 fold increase) | F (F = 20 to <30 fold increase) | 100 to 120 | > 120 | 60 to 80 | 60 to 80 | – | D (D = 10 to <30 fold increase) | – | – | – | – | – | – | – | – | < 20 | –
5 | Nc1nc(-c2cc(-c3ccon3)n(Cc3ccccc3F)n2)ncc1NC(=O)c1ccccc1 [Compound I-126] | D (D = 10 to <30 fold increase) | E (E = 10 to <20 fold increase) | F (F = 20 to <30 fold increase) | 100 to 120 | > 120 | 100 to 120 | 100 to 120 | < 20 | D (D = 10 to <30 fold increase) | F (F = 80 to <100%) | G (G = 100 to <120%) | – | 80 to 100 | 100 to 120 | – | < 2 | < 2 | – | –
6 | Nc1cc(C(F)(F)F)nc(-c2cc(-c3ccon3)n(Cc3ccccc3F)n2)n1 [Compound I-117] | A (A = no increase to <2 fold increase) | B (B = 1 to <2 fold increase) | B (B = 1 to <2 fold increase) | 10 to 20 | 10 to 20 | 0 to 10 | 0 to 10 | – | A (A = no increase to <2 fold increase) | – | – | – | – | – | – | – | – | – | –
7 | Nc1nc(-c2cc(-c3ccon3)n(Cc3ccccc3F)n2)ncc1N=C(c1ccccc1)c1ccccc1 [Compound I-123, N5-(diphenylmethylene)-2-(1-(2-fluorobenzyl)-5-(isoxazol-3-yl)-1H-pyrazol-3-yl)pyrimidine-4,5-diamine] | B (B = 2 to <5 fold increase) | B (B = 1 to <2 fold increase) | C (C = 2 to <5 fold increase) | 10 to 20 | 10 to 20 | 20 to 40 | 20 to 40 | – | A (A = no increase to <2 fold increase) | – | – | – | – | – | – | – | – | – | –
8 | COc1ccc(C2=Nc3nc(-c4cc(-c5ccon5)n(Cc5ccccc5F)n4)ncc3C(C)(C)O2)cc1 [Compound I-137] | C (C = 5 to <10 fold increase) | C (C = 2 to <5 fold increase) | D (D = 5 to <10 fold increase) | 40 to 60 | 100 to 120 | 40 to 60 | 20 to 40 | 40 to 60 | B (B = 2 to <5 fold increase) | – | – | – | – | – | – | – | – | – | –
9 | Nc1ccnc(-c2cc(-c3ccccc3)n(Cc3ccccc3F)n2)n1 [Compound I-82] | C (C = 5 to <10 fold increase) | – | – | – | 10 to 20 | – | 10 to 20 | – | C (C = 5 to <10 fold increase) | – | – | – | 10 to 20 | 20 to 40 | 80 to 100 | 4 to 8 | – | – | –
10 | C=CCOC1(c2cnc(-c3cc(-c4ccon4)n(Cc4ccccc4F)n3)nc2N)CC1 [Compound I-118, 5-(1-(allyloxy)cyclopropyl)-2-(1-(2-fluorobenzyl)-5-(isoxazol-3-yl)-1H-pyrazol-3-yl)pyrimidin-4-amine] | D (D = 10 to <30 fold increase) | D (D = 5 to <10 fold increase) | E (E = 10 to <20 fold increase) | 60 to 80 | 60 to 80 | 40 to 60 | 40 to 60 | 60 to 100 | C (C = 5 to <10 fold increase) | – | – | – | – | – | – | – | – | – | –
